Data taken from patent publication US20120207763A1, “PYRROLOPYRIMIDINE COMPOUNDS AND THEIR USES” (ASTEX THERAPEUTICS LIMITED, priority 2006, published 2012).
Several values for one entry are separate records, joined by “and”; a condition that tells them apart may be missing. Equal values may be shown once. Read-outs that look alike come from different tables or passages of the source.

Columns and labels:
Assay type in all cases: biochemical
CDK4 = CDK4 (Homo sapiens, UniProt P11802); assay: CDK4 HTRF assay; settings: Table E; read-out: CDK4 HTRF/IC50 [umol l − 1]
Chain of CDK4 (P11802 whole entry): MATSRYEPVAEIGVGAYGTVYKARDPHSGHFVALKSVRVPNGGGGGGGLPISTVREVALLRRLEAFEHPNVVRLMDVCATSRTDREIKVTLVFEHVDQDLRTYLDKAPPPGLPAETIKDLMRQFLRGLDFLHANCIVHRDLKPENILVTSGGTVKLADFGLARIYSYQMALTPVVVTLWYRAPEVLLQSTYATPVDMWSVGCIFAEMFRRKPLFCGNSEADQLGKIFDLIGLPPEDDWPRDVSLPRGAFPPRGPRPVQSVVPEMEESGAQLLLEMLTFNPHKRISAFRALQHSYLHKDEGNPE
Chain of CDK4 (P24385 whole entry partner): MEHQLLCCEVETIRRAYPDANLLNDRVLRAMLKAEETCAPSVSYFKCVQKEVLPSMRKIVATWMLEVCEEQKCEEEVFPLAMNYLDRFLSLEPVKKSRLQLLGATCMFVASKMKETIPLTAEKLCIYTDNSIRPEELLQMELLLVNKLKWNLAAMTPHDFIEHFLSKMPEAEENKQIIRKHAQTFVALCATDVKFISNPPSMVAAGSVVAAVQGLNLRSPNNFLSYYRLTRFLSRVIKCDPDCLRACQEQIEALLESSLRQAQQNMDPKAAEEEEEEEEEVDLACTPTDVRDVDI

[1] = target: CDK2/Cyclin-A kinase complex (Homo sapiens, UniProt P24941); assay: CDK2 IMAP fluorescence polarization assay; settings: Table E; read-out: CDK2cyA IMAP/IC50 [umol l − 1]
Excerpt: In order to test the CDK2 activity of the compounds of the invention, the CDK2 assay is a flourescence polarization assay, where the enzyme is a purified active CDK2/Cyclin-A kinase complex and the substrate is a synthesized peptide derived from Histone H1. This assay utilizes the IMAP technology from Molecular Devices. The active CDK2/Cyclin-A complex phosphorylates the peptide substrate, which is conjugated with the TAMRA tag. The phosphorylated site is then recognized by a metal containing molecule that interacts with the TAMRA tag to induce a high flourescence polarization. The compounds that inhibit the CDK2 kinase activity would inhibit the flourescence output of the assay.

hCDK1/B = hCDK1/B (Homo sapiens, UniProt P06493); assay: hCDK1/B assay; settings: Table E; read-out: hCDK1/B/IC50 [umol l − 1]
Chain of hCDK1/B (P06493 whole entry): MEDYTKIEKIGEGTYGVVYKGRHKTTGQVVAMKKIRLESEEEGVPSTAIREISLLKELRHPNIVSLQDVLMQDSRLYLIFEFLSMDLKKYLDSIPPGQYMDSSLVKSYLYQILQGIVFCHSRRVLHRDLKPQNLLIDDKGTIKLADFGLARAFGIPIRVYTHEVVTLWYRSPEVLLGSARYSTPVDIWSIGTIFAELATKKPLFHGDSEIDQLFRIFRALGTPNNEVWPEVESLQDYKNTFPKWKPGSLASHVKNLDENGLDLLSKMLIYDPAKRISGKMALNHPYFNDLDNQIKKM
Chain of hCDK1/B (P14635 whole entry partner): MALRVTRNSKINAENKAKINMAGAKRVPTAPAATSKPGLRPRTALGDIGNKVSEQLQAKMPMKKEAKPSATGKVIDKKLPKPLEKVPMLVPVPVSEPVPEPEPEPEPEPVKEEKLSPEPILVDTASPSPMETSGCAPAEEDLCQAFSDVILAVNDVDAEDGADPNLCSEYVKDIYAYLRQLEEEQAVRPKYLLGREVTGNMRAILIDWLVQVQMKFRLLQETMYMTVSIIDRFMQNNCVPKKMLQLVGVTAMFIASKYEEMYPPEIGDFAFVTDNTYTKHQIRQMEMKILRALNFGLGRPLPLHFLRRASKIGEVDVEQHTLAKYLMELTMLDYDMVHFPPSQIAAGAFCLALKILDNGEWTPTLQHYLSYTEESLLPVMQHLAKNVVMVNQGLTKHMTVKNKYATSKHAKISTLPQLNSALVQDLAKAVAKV

JAK-3 = target: T1, JAK-3 (Homo sapiens, UniProt P52333); assay: JAK LANCE enzymatic assay (JAK-3)
T1 construct: GST fusion constructs of the kinase domains of both enzymes are used; GST
T1 sequence (P52333 822-1111 limits assumed): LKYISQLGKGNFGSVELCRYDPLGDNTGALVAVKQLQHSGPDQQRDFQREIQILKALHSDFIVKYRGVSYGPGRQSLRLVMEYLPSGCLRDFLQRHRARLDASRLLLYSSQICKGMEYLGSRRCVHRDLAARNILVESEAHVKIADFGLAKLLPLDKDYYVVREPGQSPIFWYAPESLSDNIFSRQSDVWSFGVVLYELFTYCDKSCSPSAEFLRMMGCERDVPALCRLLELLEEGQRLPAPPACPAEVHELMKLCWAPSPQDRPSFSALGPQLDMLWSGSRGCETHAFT
Excerpt: Binding of cytokines and certain growth factors to their respective receptors trigger activation of Janus kinases, which phosphorylate members of the STAT family. Phosphorylated STAT molecules dimerize and migrate to the nucleus where they bind to DNA and initiate transcription of responsive genes. Inhibitors of pathways downstream of cytokine/growth factor receptors have therapeutic potential for several indications. An enzymatic assay for JAK-3 and JAK-2 has been developed to identify T-cell selective inhibitors. GST fusion constructs of the kinase domains of both enzymes are used and a biotinylated, tyrosine containing peptide serves as substrate. Phosphorylation of this peptide by the respective kinase is quantified with an europium-labeled anti-phosphotyrosine antibody (Eu-PT66) as energy donor and a streptavidin-allophycocyanine conjugate (SA-APC) as energy acceptor. The assay has been established in a 384 well format.
In the JAK LANCE™ assay, a biotinylated peptide is incubated together with compounds and ATP in buffer. The phosphorylation reaction starts after addition of JAK kinase. After incubation at RT the reaction is stopped with EDTA and the product detected by addition Streptavidin-Allophycocyanin and Europium-labeled antiphosphotyrosine antibody. The signal is measured using an EnVision Reader. Exc: 320 nm, Em, Donor: 615 nm and Em, Acceptor: 665 nm in time resolved fashion with a delay of […].

[2] = Table B, read-out: Jak-3 Lance/ IC50 [nmol I-1]

IC50 [1] [µM]	IC50 (hCDK1/B) [µM]	IC50 (JAK-3; Table A, read-out: Jak-3/ IC50) [µM]	Structure (SMILES)	other results
< 1	< 10		Cc1cn(C2CCC(O)C2)c2nc(Nc3ccc(CN4CCNCC4)cc3)ncc12 (centres unmarked) [Example 316]	IC50 (CDK4): < 1 µM
> 10	> 10		Cc1cn(C2CCCC2)c2nc(Nc3nccc4ccccc34)ncc12 [Example 303]	IC50 (CDK4): > 10 µM
< 10	< 10		CN(C)C(=O)c1cc2cnc(Nc3ccc(N4CCNCC4)cc3)nc2n1C1CCCC1 [Example 338]	IC50 (CDK4): < 1 µM
> 15	> 15		CCC(CC)n1c(C(=O)Nc2ccncc2)cc2cnc(Nc3ccc(N4CCNCC4)cc3)nc21 [Example 353]	IC50 (CDK4): < 1 µM
< 10	< 10		CC(=O)N1CCN(c2ccc(Nc3ncc4ccn(C5CCC(C)C5)c4n3)cc2)CC1 (centres unmarked) [Example 238]	IC50 (CDK4): < 1 µM
< 1	< 1		Cc1c(-c2cnco2)n(C2CCCC2)c2nc(Nc3ccc(N4CCNCC4)cc3)ncc12 [Example 398]	IC50 (CDK4): < 1 µM
< 10	< 10		CCC(CC)n1c(C(=O)Nc2cccc(F)c2)cc2cnc(Nc3ccc(N4CCNCC4)cc3)nc21 [Example 357]	IC50 (CDK4): < 1 µM
> 10	> 10		Cc1cn(C2CCCC2)c2nc(Nc3ccccc3)ncc12 [Example 277]	IC50 (CDK4): > 10 µM
< 10	< 10		CCC(CC)n1c(CNC2CCCC2)cc2cnc(Nc3ccc(N4CCN(C(C)=O)CC4)cc3)nc21 [Example 370]	
< 10	< 10		Cc1cn(C2CCCC2)c2nc(Nc3ccc(C(=O)N4CCOCC4)cc3)ncc12 [Example 292]	
> 15	> 15		Cc1cn(C2CCCC2)c2nc(Nc3ccc(CN4CCN(C(=O)OC(C)(C)C)CC4)cc3)ncc12 [Example 462]	
	< 10		Cc1cn(C2CCCC2)c2nc(Nc3ccc(N4CCNCC4)cc3)ncc12 [Example 266]	IC50 (CDK4): < 1 µM
> 15	> 15		CN(C)C(=O)c1cc2cnc(NCc3ccc(N4CCNCC4)cc3)nc2n1C1CCCC1 [Example 467]	
< 10	> 10		Cc1c(C(=O)N(C)C)n(C2CCCC2)c2nc(Nc3ccc(N4CCNCC4)cn3)ncc12 [Example 392]	
> 15	> 15		CCC(CC)n1c(C(=O)Nc2ccc(CN3CCN(C)CC3)cc2)cc2cnc(Nc3ccc(N4CCNCC4)cc3)nc21 [Example 354]	
< 10	< 10		CCC(CC)n1c(CNc2cccnc2)cc2cnc(Nc3ccc(N4CCN(C(C)=O)CC4)cc3)nc21 [Example 369]	
> 15	> 15		CCC(CC)n1c(C(=O)Nc2ccc(C(C)(C)C)cc2)cc2cnc(Nc3ccc(N4CCNCC4)cc3)nc21 [Example 349]	
	> 10		c1cc(N2CCNCC2)ccc1Nc1ncc2ccn(C3CCCCCC3)c2n1 [Example 232]	IC50 (CDK4): > 10 µM and < 1 µM
> 10	> 10		Cc1cn(C2CCCC2)c2nc(Nc3ccc(N4CCOCC4)cn3)ncc12 [Example 302]	

IC50 [1] [µM]	IC50 (hCDK1/B) [µM]	IC50 (JAK-3; Table A, read-out: Jak-3/ IC50) [µM]	Structure (SMILES)	other results
	> 10		Cc1cn(C2CCCC2)c2nc(Nc3ccc(N4CCNCC4)cn3)ncc12 [Example 267]	
> 10	> 10		Cc1cn(C2CCCC2)c2nc(Nc3ccc(N(C)C)cc3)ncc12 [Example 311]	
		≥ 0.1	CCC(CC)N1C(=O)Cc2cnc(Nc3cccc(OCCn4ccnc4)c3)nc21	
			CCC(CC)N1C(=O)C(C)(C)c2cnc(Nc3ccc(N4CCN(C)CC4)cc3)nc21 [drawing 105]	IC50 (JAK-3; [2]): ≥ 0.1 µM
		≥ 0.1	COc1ccc(C(=O)N2CCN(C)CC2)cc1Nc1ncc2c(n1)NC(=O)C2 [drawing 18]	
		≥ 0.1	CCC(CC)N1C(=O)Cc2cnc(Nc3ccc(N4CCCCC4)cc3)nc21	
			Cc1cn(C2CC2)c2nc(Nc3ccc(N4CCN(C)CC4)cc3)ncc12 [drawing 121]	IC50 (JAK-3; [2]): ≥ 0.1 µM
		≥ 0.1	CCC(CC)N1C(=O)Cc2cnc(Nc3ccc(S(=O)(=O)Nc4ccccn4)cc3)nc21	
		≥ 0.1	CCC(CC)n1cnc2cnc(Nc3ccc(N4CCN(C(C)=O)CC4)cc3)nc21	
		≤ 0.1	CCC(CC)n1ccc2cnc(Nc3ccc(N4CCN(C)CC4)cc3)nc21	
< 10	< 10		Cc1cn(C2CCCC2)c2nc(Nc3ccc(CO)cc3)ncc12 [Example 466]	
		≤ 0.1	CCC(CC)n1ccc2cnc(Nc3cccc(OCCN4CCCC4)c3)nc21	
< 10	< 1		CCC(CC)n1c(CNc2ccon2)cc2cnc(Nc3ccc(N4CCN(C(C)=O)CC4)cc3)nc21 [Example 371]	
		≤ 0.1	CCC(CC)n1ccc2cnc(Nc3ccc(N4CCN(C)CC4)c(F)c3)nc21 [drawing 83]	
		≤ 0.1	CCC(CC)N1C(=O)Cc2cnc(Nc3cccc(NCCN4CCCC4)c3)nc21	
> 10	> 10		Cc1cn(C2CCCC2)c2nc(Nc3ccc(N4CCCCC4)cc3)ncc12 [Example 278]	
		≤ 0.1	CCC(CC)N1C(=O)Cc2cnc(Nc3ccc(N4CCC(O)CC4)cc3)nc21	
		≥ 0.1	CCC(CC)N1C(=O)Cc2cnc(Nc3ccc(C(=O)N4CCOCC4)cc3)nc21	
		≥ 0.1	CCC(CC)N1C(=O)Cc2cnc(Nc3ccc(N4CCC(OC(=O)c5ccccc5)CC4)cc3)nc21	

IC50 [1] [µM]	IC50 (hCDK1/B) [µM]	IC50 (JAK-3; Table A, read-out: Jak-3/ IC50) [µM]	Structure (SMILES)	other results
			Cc1cn(C2CCCC2)c2nc(Nc3ccc(N4CCNCC4)cn3)ncc12 [drawing 97]	IC50 (JAK-3; [2]): ≥ 0.1 µM
		≥ 0.1	CN1CCN(C(=O)c2cccc(Nc3ncc4c(n3)N(C3CC3)C(=O)C4)c2)CC1	
		≤ 0.1	CC(=O)N1CCN(c2ccc(Nc3ncc(Br)c(Nc4ccccn4)n3)cc2)CC1	
< 10	< 10		Cc1cn(C2CCCC2)c2nc(Nc3ccc(-n4ccnc4)cc3)ncc12 [Example 312]	
		≤ 0.1	CCC(CC)n1ccc2cnc(Nc3cccc(NC(=O)c4ccncc4)c3)nc21	
			CCC(CC)n1ccc2cnc(Nc3ccc(C(=O)NC4CCCC4)cc3)nc21 [drawing 99]	IC50 (JAK-3; [2]): ≤ 0.1 µM
			CCC(CC)n1c(C)cc2cnc(Nc3ccc(C(=O)NC4CCCC4)cc3)nc21 [drawing 124]	IC50 (JAK-3; [2]): ≥ 0.1 µM
			Cc1cn(C2CCCCC2)c2nc(Nc3ccc(N4CCN(C)CC4)cc3)ncc12 [drawing 115]	IC50 (JAK-3; [2]): ≥ 0.1 µM
		≥ 0.1	O=C1Cc2cnc(Nc3ccc(N4CCOCC4)cc3)nc2N1C1CCCC1	
		≥ 0.1	O=C(c1ccc(Nc2ncc3c(n2)N(C2CC2)C(=O)C3)cc1)N1CCOCC1	
< 10	< 10		CCC(CC)n1c(CNCc2ccco2)cc2cnc(Nc3ccc(N4CCN(C(C)=O)CC4)cc3)nc21 [Example 449]	
		≤ 0.1	CCC(CC)N1C(=O)Cc2cnc(Nc3ccc(N4CCN(C(C)=O)CC4)cc3)nc21	
< 10	< 10		Cc1cn(C2CCCC2)c2nc(Nc3ccc4[nH]ncc4c3)ncc12 [Example 281]	
			CCC(CC)n1cc(C)c2cnc(Nc3ccc(C(=O)NC4CCCC4)cc3)nc21 [drawing 116]	IC50 (JAK-3; [2]): ≥ 0.1 µM
< 1	< 10		CCC(CC)n1c(CNc2cc(C)[nH]n2)cc2cnc(Nc3ccc(N4CCN(C(C)=O)CC4)cc3)nc21 [Example 372]	
			CCC(CC)N1C(=O)C(C)(C)c2cnc(Nc3ccc(N4CCNCC4)cc3)nc21 [drawing 112]	IC50 (JAK-3; [2]): ≥ 0.1 µM
			CCC(CC)n1c(C=O)cc2cnc(Nc3ccc(N4CCN(C(C)=O)CC4)cc3)nc21 [drawing 118]	IC50 (JAK-3; [2]): ≤ 0.1 µM
		≤ 0.1	CCC(CC)N1C(=O)Cc2cnc(Nc3cccc(OCCN4CCCC4)c3)nc21	
		≥ 0.1	CN1CCN(c2ccc(Nc3ncc4c(n3)N(C3CCCC3)C(=O)C4)cc2)CC1	
